Tests used:
DM1 fibroblasts = experiment: Nuclear foci assay; assay type: cell-based; details: Fibroblast; DM1 fibroblasts treated for 24 hours, 11 point dilution 20 μM-19 nM, in situ hybridisation with cy3 labelled CAG10 probe
Description: DM1 fibroblasts were treated with compounds in an 11 point dilution series from 20 μM-19 nM for 24 hours. Following treatment, fluorescent in situ hybridisation was performed with a cy3 labelled CAG10 probe, to visualize nuclear foci and cells were analysed on a Molecular Devices plate reader with customised MetaExpress software (Ketley, A. et al. (2014). Hum Mol Genet, 23: 1551-1562). Compounds that reduced nuclear foci in a concentration dependent manner, compared to DMSO treated cells were identified.

CDK12/CycK = CDK12/CycK (Homo sapiens, UniProt Q9NYV4); experiment: Inhibition of CDK12 (ADP-Glo kinase assay); assay type: biochemical; details: 60 nM CDK12/CycK, 30 minutes pre-incubation, 1 μM ATP, 0.5 μM RBER-IRStide substrate, 1 h at 25° C., read-out: CDK12/cyclin K IC50
CDK12/CycK, sequence (Q9NYV4 whole entry): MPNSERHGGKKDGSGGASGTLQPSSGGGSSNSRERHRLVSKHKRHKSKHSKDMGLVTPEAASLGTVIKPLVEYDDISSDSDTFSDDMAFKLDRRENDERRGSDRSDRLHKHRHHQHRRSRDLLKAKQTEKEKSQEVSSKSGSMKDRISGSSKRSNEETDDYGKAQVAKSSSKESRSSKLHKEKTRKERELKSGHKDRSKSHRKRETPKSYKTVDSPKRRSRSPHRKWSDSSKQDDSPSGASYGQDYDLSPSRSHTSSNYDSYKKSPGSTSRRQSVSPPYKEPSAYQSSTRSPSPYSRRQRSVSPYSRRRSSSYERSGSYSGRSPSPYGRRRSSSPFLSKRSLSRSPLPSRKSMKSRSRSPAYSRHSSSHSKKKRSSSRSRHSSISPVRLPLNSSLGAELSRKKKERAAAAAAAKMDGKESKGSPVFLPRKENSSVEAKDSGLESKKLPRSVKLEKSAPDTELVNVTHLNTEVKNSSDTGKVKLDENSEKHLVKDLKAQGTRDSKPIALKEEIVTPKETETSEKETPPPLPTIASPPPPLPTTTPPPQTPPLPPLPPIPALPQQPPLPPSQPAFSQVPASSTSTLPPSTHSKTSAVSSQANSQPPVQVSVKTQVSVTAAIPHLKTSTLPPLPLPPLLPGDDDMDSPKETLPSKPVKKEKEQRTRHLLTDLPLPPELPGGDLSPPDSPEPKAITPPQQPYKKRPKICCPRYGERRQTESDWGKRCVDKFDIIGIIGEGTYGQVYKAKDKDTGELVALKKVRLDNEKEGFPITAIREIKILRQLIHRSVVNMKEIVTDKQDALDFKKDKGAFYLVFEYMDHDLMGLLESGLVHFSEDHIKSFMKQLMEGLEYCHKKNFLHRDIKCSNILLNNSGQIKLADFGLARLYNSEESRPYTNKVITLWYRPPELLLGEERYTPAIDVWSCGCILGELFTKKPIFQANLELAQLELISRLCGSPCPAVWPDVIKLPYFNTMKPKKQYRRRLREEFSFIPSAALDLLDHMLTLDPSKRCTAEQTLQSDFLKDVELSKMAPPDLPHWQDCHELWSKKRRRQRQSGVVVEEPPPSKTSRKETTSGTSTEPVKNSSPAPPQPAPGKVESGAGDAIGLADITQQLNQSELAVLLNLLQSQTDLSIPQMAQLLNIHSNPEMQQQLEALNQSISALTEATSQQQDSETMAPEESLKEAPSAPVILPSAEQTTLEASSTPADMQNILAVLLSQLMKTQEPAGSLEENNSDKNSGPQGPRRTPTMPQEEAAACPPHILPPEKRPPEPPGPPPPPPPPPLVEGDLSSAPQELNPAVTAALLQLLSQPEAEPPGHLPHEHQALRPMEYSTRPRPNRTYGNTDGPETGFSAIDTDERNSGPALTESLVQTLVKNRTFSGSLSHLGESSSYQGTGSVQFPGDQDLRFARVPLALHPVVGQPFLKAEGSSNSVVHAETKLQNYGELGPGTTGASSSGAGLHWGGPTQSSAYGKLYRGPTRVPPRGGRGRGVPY
CDK12/CycK, sequence (O75909 whole entry partner): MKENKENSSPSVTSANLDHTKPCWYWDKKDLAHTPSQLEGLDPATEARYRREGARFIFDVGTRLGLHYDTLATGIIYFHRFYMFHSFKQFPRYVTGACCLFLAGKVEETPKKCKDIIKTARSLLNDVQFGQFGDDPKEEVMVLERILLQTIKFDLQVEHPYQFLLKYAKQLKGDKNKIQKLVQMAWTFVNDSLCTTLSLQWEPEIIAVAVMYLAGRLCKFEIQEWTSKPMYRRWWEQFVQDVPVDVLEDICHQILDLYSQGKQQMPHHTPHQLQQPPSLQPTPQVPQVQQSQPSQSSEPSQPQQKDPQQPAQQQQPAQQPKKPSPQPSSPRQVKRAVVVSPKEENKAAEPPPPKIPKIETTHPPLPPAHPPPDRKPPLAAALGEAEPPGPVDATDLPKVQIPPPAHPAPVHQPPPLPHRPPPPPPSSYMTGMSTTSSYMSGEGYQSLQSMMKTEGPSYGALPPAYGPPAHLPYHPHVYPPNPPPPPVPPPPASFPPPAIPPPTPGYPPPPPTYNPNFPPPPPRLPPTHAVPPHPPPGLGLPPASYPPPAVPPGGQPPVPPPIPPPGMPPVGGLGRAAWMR
Summary of the method: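 ADP-Glo luminescence read after a 1 h, 25 °C reaction with 1 μM ATP and 0.5 μM RBER-IRStide peptide. Enzyme (60 nM) and compound were first pre-incubated 30 min; buffer 50 mM HEPES pH 7.5, 20 mM MgCl2, 3 mM MnCl2, 1% DMSO. IC50 fitted after blank subtraction.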

| SMILES | IC50 (CDK12/CycK) | IC50 (DM1 fibroblasts) |
| --- | --- | --- |
| NC(=O)c1cc2c(-c3cnn4ncccc34)ccnc2[nH]1 [Example 6, 4-(Pyrazolo[1,5-b]pyridazin-3-yl)-1H-pyrrolo[2,3-b]pyridine-2-carboxamide] | 0.1 to 1 µM | 1 to 10 µM |
| CNC(=O)c1cc2c(-c3cnn4ncccc34)ccnc2[nH]1 [Example 7, N-Methyl-4-(pyrazolo[1,5-b]pyridazin-3-yl)-1H-pyrrolo[2,3-b]pyridine-2-carboxamide] | 0.1 to 1 µM | 1 to 10 µM |
| c1ccc(Cc2cc3c(-c4cnn5ncccc45)ccnc3[nH]2)cc1 [Example 10, 3-(2-Benzyl-1H-pyrrolo[2,3-b]pyridin-4-yl)pyrazolo[1,5-b]pyridazine] | 1 to 30 µM | 10 to 100 µM |
| OCc1cc2c(-c3cnn4ncccc34)ccnc2[nH]1 [Example 11, (4-(Pyrazolo[1,5-b]pyridazin-3-yl)-1H-pyrrolo[2,3-b]pyridin-2-yl)methanol] | 0.1 to 1 µM | 1 to 10 µM |
| c1cc(-c2ccc3cn[nH]c3c2)c2cc[nH]c2n1 [Example 20, 6-(1H-Pyrrolo[2,3-b]pyridin-4-yl)-1H-indazole] | 0.1 to 1 µM | 10 to 100 µM |
| c1cc(-c2ccc3[nH]nnc3c2)c2cc[nH]c2n1 [Example 21, 5-(1H-Pyrrolo[2,3-b]pyridin-4-yl)-1H-benzo[d][1,2,3]triazole] | 1 to 30 µM | 10 to 100 µM |
| COc1ccc2c(-c3ccnc4[nH]ccc34)cnn2n1 [Example 22, 6-Methoxy-3-(1H-pyrrolo[2,3-b]pyridin-4-yl)pyrazolo[1,5-b]pyridazine] | 1 to 30 µM | 10 to 100 µM |
| Cc1cc2c(-c3cnn4ncccc34)ccnc2[nH]1 [Example 27, 3-(2-Methyl-1H-pyrrolo[2,3-b]pyridin-4-yl)pyrazolo[1,5-b]pyridazine] | 0.1 to 1 µM | < 1 µM |
| c1cnn2ncc(-c3ccnc4[nH]ccc34)c2c1 [Example 28, 3-(1H-Pyrrolo[2,3-b]pyridin-4-yl)pyrazolo[1,5-b]pyridazine] | 0.1 to 1 µM | < 1 µM |
| CC(C)=CC(=O)N1CCC[C@H]1C(=O)NCCc1cc2c(-c3cnn4ncccc34)ccnc2[nH]1 [Example 42, (S)-1-(3-Methylbut-2-enoyl)-N-(2-(4-(pyrazolo[1,5-b]pyridazin-3-yl)-1H-pyrrolo[2,3-b]pyridin-2-yl)ethyl)pyrrolidine-2-carboxamide] | 0.1 to 1 µM | 1 to 10 µM |
| C=C(C)C(=O)N1CCC[C@H]1C(=O)NCCc1cc2c(-c3cnn4ncccc34)ccnc2[nH]1 [Example 43, (S)-1-Methacryloyl-N-(2-(4-(pyrazolo[1,5-b]pyridazin-3-yl)-1H-pyrrolo[2,3-b]pyridin-2-yl)ethyl)pyrrolidine-2-carboxamide] | 1 to 30 µM | 10 to 100 µM |
| C/C=C/C(=O)N1CCC[C@H]1C(=O)NCCc1cc2c(-c3cnn4ncccc34)ccnc2[nH]1 [Example 44, (S,E)-1-(But-2-enoyl)-N-(2-(4-(pyrazolo[1,5-b]pyridazin-3-yl)-1H-pyrrolo[2,3-b]pyridin-2-yl)ethyl)pyrrolidine-2-carboxamide] | 1 to 30 µM | 1 to 10 µM |
| CC(C)(CCl)C(=O)N1CCC[C@H]1C(=O)NCCc1cc2c(-c3cnn4ncccc34)ccnc2[nH]1 [Example 45, (S)-1-(3-Chloro-2,2-dimethylpropanoyl)-N-(2-(4-(pyrazolo[1,5-b]pyridazin-3-yl)-1H-pyrrolo[2,3-b]pyridin-2-yl)ethyl)pyrrolidine-2-carboxamide] | 0.1 to 1 µM | 10 to 100 µM |
| C=CC(=O)N1CCC[C@H](C(=O)NCCc2cc3c(-c4cnn5ncccc45)c(Cl)cnc3[nH]2)C1 [Example 55, (S)-1-Acryloyl-N-(2-(5-chloro-4-(pyrazolo[1,5-b]pyridazin-3-yl)-1H-pyrrolo[2,3-b]pyridin-2-yl)ethyl)piperidine-3-carboxamide] | < 0.1 µM | 1 to 10 µM |
| C=CC(=O)Nc1ccc(C(=O)NCc2cc3c(-c4cnn5ncccc45)ccnc3[nH]2)cc1 [Example 57, 4-Acrylamido-N-((4-(pyrazolo[1,5-b]pyridazin-3-yl)-1H-pyrrolo[2,3-b]pyridin-2-yl)methyl)benzamide] | 0.1 to 1 µM | 1 to 10 µM |
| C=CC(=O)Nc1cccc(C(=O)NCCCc2cc3c(-c4cnn5ncccc45)ccnc3[nH]2)c1 [Example 215, 3-Acrylamido-N-(3-(4-(pyrazolo[1,5-b]pyridazin-3-yl)-1H-pyrrolo[2,3-b]pyridin-2-yl)propyl)benzamide] | < 0.1 µM |  |
| C=CC(=O)N1CCC[C@H]1C(=O)NCCCc1cc2c(-c3cnn4ncccc34)ccnc2[nH]1 [Example 216, (S)-1-Acryloyl-N-(3-(4-(pyrazolo[1,5-b]pyridazin-3-yl)-1H-pyrrolo[2,3-b]pyridin-2-yl)propyl)pyrrolidine-2-carboxamide] | < 0.1 µM |  |

Now from value to molecule, other results behind:

| IC50 (CDK12/CycK) | SMILES | IC50 (DM1 fibroblasts) |
| --- | --- | --- |
| < 0.1 µM | C=CC(=O)N1CCC1C(=O)NCCc1cc2c(-c3cnn4ncccc34)ccnc2[nH]1 (single isomer, unassigned) [Example 39] | < 1 µM |
| < 0.1 µM | C=CC(=O)N1CCC[C@H]1C(=O)NCCc1cc2c(-c3cnn4ncccc34)ccnc2[nH]1 [Example 32, (S)-1-Acryloyl-N-(2-(4-(pyrazolo[1,5-b]pyridazin-3-yl)-1H-pyrrolo[2,3-b]pyridin-2-yl)ethyl)pyrrolidine-2-carboxamide] | < 1 µM |
| < 0.1 µM | C=CC(=O)N1CCC[C@@H]1C(=O)NCCc1cc2c(-c3cnn4ncccc34)ccnc2[nH]1 [Example 33, (R)-1-Acryloyl-N-(2-(4-(pyrazolo[1,5-b]pyridazin-3-yl)-1H-pyrrolo[2,3-b]pyridin-2-yl)ethyl)pyrrolidine-2-carboxamide] | < 1 µM |
| < 0.1 µM | C=CC(=O)N1CCC[C@@H](C(=O)NCCc2cc3c(-c4cnn5ncccc45)ccnc3[nH]2)C1 [Example 34, (R)-1-Acryloyl-N-(2-(4-(pyrazolo[1,5-b]pyridazin-3-yl)-1H-pyrrolo[2,3-b]pyridin-2-yl)ethyl)piperidine-3-carboxamide] | 1 to 10 µM |
| < 0.1 µM | C=CC(=O)N1CCC[C@H](C(=O)NCCc2cc3c(-c4cnn5ncccc45)ccnc3[nH]2)C1 [Example 35, (S)-1-acryloyl-N-(2-(4-(pyrazolo[1,5-b]pyridazin-3-yl)-1H-pyrrolo[2,3-b]pyridin-2-yl)ethyl)piperidine-3-carboxamide] | < 1 µM |
| < 0.1 µM | C=CC(=O)Nc1cccc(C(=O)NCCc2cc3c(-c4cnn5ncccc45)ccnc3[nH]2)c1 [Example 36, 3-Acrylamido-N-(2-(4-(pyrazolo[1,5-b]pyridazin-3-yl)-1H-pyrrolo[2,3-b]pyridin-2-yl)ethyl)benzamide] | < 1 µM |
| < 0.1 µM | C=CC(=O)N1CC(C(=O)NCCc2cc3c(-c4cnn5ncccc45)ccnc3[nH]2)C1 [Example 37, 1-Acryloyl-N-(2-(4-(pyrazolo[1,5-b]pyridazin-3-yl)-1H-pyrrolo[2,3-b]pyridin-2-yl)ethyl)azetidine-3-carboxamide] | 1 to 10 µM |
| < 0.1 µM | C=CC(=O)N1CCC[C@@H]1C(=O)NCCc1cc2c(-c3cnn4ncccc34)c(Cl)cnc2[nH]1 [Example 54, (R)-1-Acryloyl-N-(2-(5-chloro-4-(pyrazolo[1,5-b]pyridazin-3-yl)-1H-pyrrolo[2,3-b]pyridin-2-yl)ethyl)pyrrolidine-2-carboxamide] | < 1 µM |

Reference: patent publication US11407767B2, “Heterocyclyl substituted pyrrolopyridines that are inhibitors of the CDK12 kinase” (The University of Nottingham, priority 2017, dated 2022)
